# Laboratory results reported in PMC9612326 (Viruses, 2022).
# Peptide text beside a SMILES is read from it.
# Experiments:
# [1] = Peptide stability in human serum; conditions: human serum (50% v/v) from a healthy donor
# [2] = target: His-tagged Spike RBD protein (SARS-CoV-2) (UniProt P0DTC2); assay: BLI
Compound,half-life at 1 mM [1] [h],Kd [2] [µM]
CC(C)C[C@H](NC(=O)[C@@H](N)[C@@H](C)O)C(=O)N[C@@H](Cc1c[nH]cn1)C(N)=O [TLH] (H-Thr-Leu-His-NH2),4.36,–
CC[C@H](C)[C@H](NC(=O)[C@H](Cc1ccccc1)NC(=O)[C@@H](N)C(C)C)C(N)=O [VFI] (H-Val-Phe-Ile-NH2),12.4,–
tripeptide TLH,–,22.8
tripeptide VFI,–,28.4
